According to patent US8268575B2, “NAD biosynthesis systems” (Washington University, priority 2004, dated 2012):
Entries after “also recorded” stand apart in the source; their conditions may differ.

Columns and labels:
[1] = target: T1, purified recombinant mouse Nampt (Mus musculus, UniProt Q99KQ4); assay: enzyme-coupled fluorometric assay, kinetic characterization of Nampt; format: biochemical; conditions: substrate of Nampt
T1 construct: the purified full-length His-tagged Nampt and Nmnat recombinant proteins; made in house; host or cells: E. coli BL21(DE3)pLysS
Description: (§1) Enzymatic activities of recombinant Nampt and Nmnat proteins were measured by an enzyme-coupled fluorometric assay (see e.g. FIG. 2A). In this enzyme-coupled reaction, NAD is converted to NADH by alcohol dehydrogenase, and the fluorescence of NADH is detected in a fluorometer. To establish this assay system, optimal reaction conditions for Nmnat were initially examined by varying ATP and Mg^2+ concentrations and pH of the reaction buffer. The resultant reaction buffer for Nmnat contained 50 mM HEPES [pH 7.4], 0.02% BSA, 12 mM MgCl2, 2 mM ATP, 1.5% ethanol, and 30 μg/ml alcohol dehydrogenase to convert NAD to NADH. To determine the kinetic parameters for Nmnat, 30 ng of purified His-tagged Nmnat and varying concentrations of NMN were added to 1 ml of the reaction buffer. The reactions were run at 37° C. and quenched at six time points by the addition of 250 μl of 0.5 M EDTA. The production of NADH was measured by excitation at 340 nm and emission at 460 nm in a fluorometer. […] NADH production was measured continuously in a fluorometer.

NIH3T3 cells = assay: total cellular NAD levels by HPLC in NIH3T3 cells; format: cell-based, mouse; conditions: 5 mM added to the medium
Description: Total cellular levels of NAD was measured in the NIH3T3 cell lines overexpressing the untagged enzymes. High performance liquid chromatography was used to measure NAD (Neubert et al., Biochim. Biophys. Acta. (1964) 92, 610-612; Emanuelli et al., J. Chromatogr. (1996) B. 676, 13-18). Briefly, 5×10^5 cells were plated in 6 cm dishes and harvested 48 h later in 800 μl of ice-cold PBS. Cells were then spun down and lysed with 300 μl of 1 M HClO4 on ice for 10 min. Lysates were cleared by centrifugating at 4° C. at 18,000 g for 5 minutes. Cleared lysates (240 μl) were neutralized by adding 80 μl of 3M K2CO3 and incubating on ice for 10 minutes. After centrifuging for 10 min, 100 μl of the supernatant were mixed with 400 μl of Buffer A and loaded onto the column. The HPLC was run at a flow rate of 1 ml/min with 100% Buffer A from 0 to 5 min, a linear gradient to 95% Buffer A and 5% Buffer B (100% methanol) from 5 to 6 min, 95% Buffer A and 5% Buffer B from 6 to 11 min, a linear gradient to 85% Buffer A and 15% Buffer B from 11 to 13 min, 85% Buffer A and 15% Buffer B from 13 to 23 min, and a linear gradient to 100% Buffer A from 23 to 24 min. NAD was eluted as a sharp peak at 22 min. The amount of NAD was quantitated based on the peak area compared to a standard curve.

[2] = target: GAL4 DBD fused to the Sir2α catalytic core domain (GAL4 DBD-mCORE) (Mus musculus, UniProt Q923E4); conditions: 5 mM, added 24 h after transfection, NIH3T3 cells
Description: A reporter gene transcription assay using a GAL4 DNA binding domain (GAL4 DBD) fusion system was developed to monitor the transcriptional regulatory activity of the mouse Sir2 ortholog, Sir2α. […] This assay system used the GAL4 DBD fused to the Sir2α catalytic core domain (GAL4 DBD-mCORE) and a luciferase reporter that has a thymidine kinase minimal promoter and four GAL4 binding sites.
For the luciferase assay, 1.2×10^5 NIH3T3 cells were plated in 6 cm dishes. 24 h after plating, cells were transfected for 3 h with 380 ng of pUAS4tk-luc as a reporter, 1.5 μg of pM or pM-GAL4 DBD-mCORE as an effector, and 38 ng of pRL-SV40 (Promega, Wis.) as a normalization control by using Superfect (Qiagen). Transfectants were harvested 48 h after transfection, and luciferase activity was measured with the Dual-Luciferase Reporter Assay System (Promega, Wis.) and a SIRIUS luminometer (Berthold Detection Systems, Germany) according to the manufacturers' protocols. Background luminescence was subtracted and was always less than 1% of measured values. Transfection efficiencies were normalized based on Renilla luciferase activities. […] To examine the effects of Nampt and Nmnat on the transcriptional repressive activity of GAL4 DBD-mCORE, NIH3T3 cells were co-transfected with indicated amounts of Nampt and Nmnat expression vectors along with reporter, effector and normalization control plasmids.

[3] = target: T2, purified recombinant mouse Nmnat (Mus musculus, UniProt Q9EPA7); assay: enzyme-coupled fluorometric assay, kinetic parameters for Nmnat; format: biochemical; conditions: substrate of Nmnat
T2 construct: the purified full-length His-tagged Nampt and Nmnat recombinant proteins; made in house; host or cells: E. coli BL21(DE3)pLysS
Description: as §1

T2 sequence (Q9EPA7 whole entry): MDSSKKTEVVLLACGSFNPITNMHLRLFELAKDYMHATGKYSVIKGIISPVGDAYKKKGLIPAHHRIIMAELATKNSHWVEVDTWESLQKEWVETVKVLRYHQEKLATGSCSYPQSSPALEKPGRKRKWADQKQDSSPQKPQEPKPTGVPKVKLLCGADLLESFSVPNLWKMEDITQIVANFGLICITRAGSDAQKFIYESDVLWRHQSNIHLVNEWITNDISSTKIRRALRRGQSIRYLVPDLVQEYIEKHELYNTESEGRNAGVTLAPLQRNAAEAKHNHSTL
T1 sequence (Q99KQ4 whole entry): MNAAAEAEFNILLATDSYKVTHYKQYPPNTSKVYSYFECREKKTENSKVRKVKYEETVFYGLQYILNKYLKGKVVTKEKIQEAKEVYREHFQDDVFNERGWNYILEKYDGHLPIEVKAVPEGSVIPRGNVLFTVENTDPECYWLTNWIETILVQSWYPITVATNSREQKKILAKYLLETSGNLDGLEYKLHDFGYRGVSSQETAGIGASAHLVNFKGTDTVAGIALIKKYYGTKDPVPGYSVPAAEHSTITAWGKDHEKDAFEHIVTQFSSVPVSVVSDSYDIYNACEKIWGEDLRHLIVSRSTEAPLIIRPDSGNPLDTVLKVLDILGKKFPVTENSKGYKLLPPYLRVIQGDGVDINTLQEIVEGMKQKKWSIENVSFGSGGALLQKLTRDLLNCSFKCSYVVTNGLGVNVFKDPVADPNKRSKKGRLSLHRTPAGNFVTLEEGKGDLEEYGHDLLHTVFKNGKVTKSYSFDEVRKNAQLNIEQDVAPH
GAL4 DBD fused to the Sir2α catalytic core domain (GAL4 DBD-mCORE), sequence (Q923E4 with tags, fused parts or gaps): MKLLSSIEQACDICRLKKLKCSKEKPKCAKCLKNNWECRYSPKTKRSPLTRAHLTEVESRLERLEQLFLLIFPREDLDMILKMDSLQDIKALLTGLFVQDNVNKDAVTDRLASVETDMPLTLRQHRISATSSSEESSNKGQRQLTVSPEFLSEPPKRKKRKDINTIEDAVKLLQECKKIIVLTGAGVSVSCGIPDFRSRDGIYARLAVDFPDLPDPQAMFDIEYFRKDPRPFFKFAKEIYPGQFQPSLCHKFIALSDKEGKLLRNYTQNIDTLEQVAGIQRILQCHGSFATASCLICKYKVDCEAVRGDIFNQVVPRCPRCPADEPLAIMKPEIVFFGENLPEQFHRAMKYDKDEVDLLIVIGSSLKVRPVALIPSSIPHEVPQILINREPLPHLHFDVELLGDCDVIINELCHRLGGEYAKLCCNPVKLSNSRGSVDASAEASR

| Kcat [1] [s⁻¹] | Vmax [1] [µmol/min/mg] | effect on transcriptional repressive activity of GAL4 DBD-mCORE [2] | Kcat [3] [s⁻¹] | Vmax [3] [µmol/min/mg] | Km ([3]; 37° C., pH 7.4) [µM] | Compound | effect on total cellular NAD (NIH3T3 cells) |
| --- | --- | --- | --- | --- | --- | --- | --- |
| 0.020 | 0.021 | abolished |  |  |  | NC(=O)c1cccnc1 [Nicotinamide, 3-pyridinecarboxamide] | did not increase NAD; also recorded: unable to increase NAD |
|  |  |  | 20.0 | 34.1 | 20.1 | NC(=O)c1ccc[n+]([C@@H]2O[C@H](COP(=O)([O-])O)[C@@H](O)[C@H]2O)c1 [NMN, nicotinamide mononucleotide] |  |
|  |  | not |  |  |  | O=C(O)c1cccnc1 [nicotinic acid] |  |
